The source of these data is ChEMBL document CHEMBL1139533, “Structure-activity relationship studies of a series of antiviral and antibacterial aglycon derivatives of the glycopeptide antibiotics vancomycin, eremomycin, and dechloroeremomycin” (J Med Chem, 2005).

Assay [1] concerns Moloney murine sarcoma virus. Description: Effective concentration against Moloney sarcoma virus. It counts as functional, organism-based, Viruses.
For assay [2], the system named is Staphylococcus aureus. Briefly: Minimum inhibitory concentration against glycopeptide intermediate-resistant 3798 Staphylococcus aureus. It counts as functional.
Assay [3] has as its system Enterococcus faecalis. Description: Minimum inhibitory concentration against glycopeptide resistant enterococci 560 Enterococcus faecalis. It counts as functional.
In assay [4] the test system is Enterococcus faecium. Description: Minimum inhibitory concentration against glycopeptide resistant enterococci 569 Enterococcus faecium. The assay is classed as functional.
For assay [5], the system named is Staphylococcus aureus. Briefly: Minimum inhibitory concentration against glycopeptide intermediate-resistant 3797 Staphylococcus aureus. It counts as functional.
The test system of assay [6] is MOLT-4. Description: Cytostatic activity to the compound against Molt4/C8 cell line. It counts as functional, cell-based. The following applies: Homo sapiens.
Assay [7] relates to Human immunodeficiency virus 1. Briefly: Effective concentration against human immunodeficiency virus type 1. The assay is classed as functional, organism-based.
Assay [8] has as its system Staphylococcus epidermidis. Briefly: Minimum inhibitory concentration against 533 Staphylococcus epidermidis. The assay is classed as functional.
The subject of assay [9] is Enterococcus faecalis. Briefly: Minimum inhibitory concentration against 559 glycopeptide susceptible enterococci Enterococcus faecalis. It counts as functional.
Assay [10] has as its system Human immunodeficiency virus 2. Briefly: Effective concentration against human immunodeficiency virus type 2. It counts as functional, organism-based.
In assay [11] the test system is Staphylococcus haemolyticus. Description: Minimum inhibitory concentration against 602 Staphylococcus haemolyticus. The assay is classed as functional.
The subject of assay [12] is CCRF-CEM. Description: Cytostatic activity to the compound against CEM cell line. It counts as functional, cell-based. As to conditions: Homo sapiens.
For assay [13], the system named is L1210. Briefly: Cytostatic activity against L1210 cell line. The assay is classed as functional, cell-based. As to conditions: Mus musculus.
The subject of assay [14] is Enterococcus faecium. Briefly: Minimum inhibitory concentration against glycopeptide susceptible enterococci 568 Enterococcus faecium. The assay is classed as functional.
The subject of assay [15] is C3H/3T3. Briefly: Minimal cytotoxic concentration to cause an alteration in C3H/3T3 cell line morphology. It counts as functional. As to conditions: Mus musculus.

Molecules are shown by their SMILES.

The EC50 is the concentration giving half of the maximal effect. A lower EC50 goes with an effect from little substance. As usually defined, the MIC is the smallest concentration in the dilution series that meets the test's criterion for growth inhibition. Lower therefore signals a more susceptible organism. The IC50 is the point on the concentration scale where inhibition reaches its midpoint. Low readings indicate inhibition by little substance, high ones a need for much substance. `NC(=O)C[C@@H]1NC(=O)[C@H](N)[C@H](O)c2ccc(c(Cl)c2)Oc2cc3cc(c2O)Oc2ccc(cc2)[C@@H](O)[C@@H]2NC(=O)[C@H](NC(=O)[C@@H]3NC1=O)c1ccc(O)c(c1)-c1c(O)cc(O)cc1[C@@H](C(=O)NC1C3CC4CC(C3)CC1C4)NC2=O` (stereo not given in full): the results for the concentration giving a half-maximal response (EC50) in assay [1], in assay [7] and in assay [10] were 22 µM, 50 µM and 50 µM, respectively. The MIC was more than 32 µg/mL in assay [2]; more than 64 µg/mL in [3]; more than 64 µg/mL in [4]; more than 32 µg/mL in assay [5]; more than 32 µg/mL in [8]; more than 64 µg/mL in assay [9]. Moreover, the minimum inhibitory concentration (MIC) in assay [11] is more than 32 µg/mL; in [14] it was more than 64 µg/mL. Moreover, the IC50 in assay [6], in assay [12] and in [13] was more than 250 µM in each case. In assay [15], this compound yielded an MCC not below 100 µg/mL.
